Laboratory results from PubChem BioAssay (NCI).
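Five compound concentrations were applied to cells in 96-well plates for 48 hours; endpoints were derived by simple linear interpolation of the resulting dose-response curve. GI50 marks 50% less growth. TGI denotes the concentration required for complete inhibition of growth.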

Assays:
Assay in all cases: NCI-60 cell line screen, 48 h
786-0 renal = system: 786-0 renal
A498 renal = system: A498 renal
A549 NSCLC = system: A549 NSCLC
ACHN renal = system: ACHN renal
CAKI-1 renal = system: CAKI-1 renal
CCRF-CEM leukemia = system: CCRF-CEM leukemia
COLO 205 colon = system: COLO 205 colon
DU-145 prostate = system: DU-145 prostate
EKVX NSCLC = system: EKVX NSCLC
HCC-2998 colon = system: HCC-2998 colon
HCT-116 colon = system: HCT-116 colon
HCT-15 colon = system: HCT-15 colon
HL-60(TB) leukemia = system: HL-60(TB) leukemia
HOP-62 NSCLC = system: HOP-62 NSCLC
HOP-92 NSCLC = system: HOP-92 NSCLC
HS 578T breast = system: HS 578T breast
HT29 colon = system: HT29 colon
IGROV1 ovarian = system: IGROV1 ovarian
K-562 leukemia = system: K-562 leukemia
KM12 colon = system: KM12 colon
LOX IMVI melanoma = system: LOX IMVI melanoma
M14 melanoma = system: M14 melanoma
MALME-3M melanoma = system: MALME-3M melanoma
MCF7 breast = system: MCF7 breast
MDA-MB-231 breast = system: MDA-MB-231 breast
MDA-MB-435 = system: MDA-MB-435
MOLT-4 leukemia = system: MOLT-4 leukemia
NCI-H226 lung = system: NCI-H226 lung
NCI-H23 lung = system: NCI-H23 lung
NCI-H460 lung = system: NCI-H460 lung
NCI-H522 lung = system: NCI-H522 lung
NCI/ADR-RES ovarian = system: NCI/ADR-RES ovarian
OVCAR-3 ovarian = system: OVCAR-3 ovarian
OVCAR-4 ovarian = system: OVCAR-4 ovarian
OVCAR-5 ovarian = system: OVCAR-5 ovarian
OVCAR-8 ovarian = system: OVCAR-8 ovarian
PC-3 prostate = system: PC-3 prostate
RPMI-8226 leukemia = system: RPMI-8226 leukemia
RXF 393 renal = system: RXF 393 renal
SF-268 CNS = system: SF-268 CNS
SF-295 CNS = system: SF-295 CNS
SF-539 CNS = system: SF-539 CNS
SK-MEL-2 melanoma = system: SK-MEL-2 melanoma
SK-MEL-28 melanoma = system: SK-MEL-28 melanoma
SK-MEL-5 melanoma = system: SK-MEL-5 melanoma
SK-OV-3 ovarian = system: SK-OV-3 ovarian
SNB-75 CNS = system: SNB-75 CNS
SR leukemia = system: SR leukemia
SW-620 colon = system: SW-620 colon
T-47D breast = system: T-47D breast
TK-10 renal = system: TK-10 renal
U251 CNS = system: U251 CNS
UACC-257 melanoma = system: UACC-257 melanoma
UACC-62 melanoma = system: UACC-62 melanoma
UO-31 renal = system: UO-31 renal
BT-549 breast = system: BT-549 breast
SN12C renal = system: SN12C renal
SNB-19 CNS = system: SNB-19 CNS

What does the source list for `O=C1C2C(C(=O)N1CC[Se][Se]CCN1C(=O)C3C(C1=O)[C@H]1C=C[C@@H]3C1)[C@H]1C=C[C@@H]2C1` (stereo partly specified)?
GI50 (786-0 renal): 369 nM; TGI (786-0 renal): 1290 nM; GI50 (A498 renal): 686 nM; TGI (A498 renal): 2260 nM; GI50 (A549 NSCLC): 447 nM; TGI (A549 NSCLC): 4720 nM; GI50 (ACHN renal): 408 nM; TGI (ACHN renal): 2210 nM; GI50 (CAKI-1 renal): 301 nM; TGI (CAKI-1 renal): 828 nM; GI50 (CCRF-CEM leukemia): 566 nM; TGI (CCRF-CEM leukemia): 4020 nM; GI50 (COLO 205 colon): 2120 nM; TGI (COLO 205 colon): 4980 nM; GI50 (DU-145 prostate): 555 nM; TGI (DU-145 prostate): 2860 nM; GI50 (EKVX NSCLC): 274 nM; TGI (EKVX NSCLC): 969 nM; GI50 (HCC-2998 colon): 2620 nM; TGI (HCC-2998 colon): 8920 nM; GI50 (HCT-116 colon): 409 nM; TGI (HCT-116 colon): 2870 nM; GI50 (HCT-15 colon): 441 nM; TGI (HCT-15 colon): 2330 nM; GI50 (HL-60(TB) leukemia): 209 nM; TGI (HL-60(TB) leukemia): 477 nM; GI50 (HOP-62 NSCLC): 488 nM; TGI (HOP-62 NSCLC): 2660 nM; GI50 (HOP-92 NSCLC): 575 nM; TGI (HOP-92 NSCLC): 2290 nM; GI50 (HS 578T breast): 266 nM; TGI (HS 578T breast): 1160 nM; GI50 (HT29 colon): 355 nM; TGI (HT29 colon): 12700 nM; GI50 (IGROV1 ovarian): 220 nM; TGI (IGROV1 ovarian): 556 nM; GI50 (K-562 leukemia): 1630 nM; TGI (K-562 leukemia): > 38500 nM; GI50 (KM12 colon): 1350 nM; TGI (KM12 colon): 10200 nM; GI50 (LOX IMVI melanoma): 167 nM; TGI (LOX IMVI melanoma): 327 nM; GI50 (M14 melanoma): 332 nM; TGI (M14 melanoma): 1970 nM; GI50 (MALME-3M melanoma): 277 nM; TGI (MALME-3M melanoma): 1080 nM; GI50 (MCF7 breast): 332 nM; TGI (MCF7 breast): 4010 nM; GI50 (MDA-MB-231 breast): 595 nM; TGI (MDA-MB-231 breast): 5480 nM; GI50 (MDA-MB-435): 267 nM; TGI (MDA-MB-435): 744 nM; GI50 (MOLT-4 leukemia): 410 nM; TGI (MOLT-4 leukemia): 6680 nM; GI50 (NCI-H226 lung): 219 nM; TGI (NCI-H226 lung): 495 nM; GI50 (NCI-H23 lung): 802 nM; TGI (NCI-H23 lung): 4480 nM; GI50 (NCI-H460 lung): 361 nM; TGI (NCI-H460 lung): 1690 nM; GI50 (NCI-H522 lung): 1790 nM; TGI (NCI-H522 lung): 4440 nM; GI50 (NCI/ADR-RES ovarian): 561 nM; TGI (NCI/ADR-RES ovarian): 3540 nM; GI50 (OVCAR-3 ovarian): 852 nM; TGI (OVCAR-3 ovarian): 2940 nM; GI50 (OVCAR-4 ovarian): 1040 nM; TGI (OVCAR-4 ovarian): 4520 nM; GI50 (OVCAR-5 ovarian): 1480 nM; TGI (OVCAR-5 ovarian): 5580 nM; GI50 (OVCAR-8 ovarian): 404 nM; TGI (OVCAR-8 ovarian): 2280 nM; GI50 (PC-3 prostate): 844 nM; TGI (PC-3 prostate): 4390 nM; GI50 (RPMI-8226 leukemia): 2190 nM; TGI (RPMI-8226 leukemia): 5170 nM; GI50 (RXF 393 renal): 338 nM; TGI (RXF 393 renal): 1110 nM; GI50 (SF-268 CNS): 271 nM; TGI (SF-268 CNS): 760 nM; GI50 (SF-295 CNS): 1110 nM; TGI (SF-295 CNS): 2420 nM; GI50 (SF-539 CNS): 223 nM; TGI (SF-539 CNS): 467 nM; GI50 (SK-MEL-2 melanoma): 1980 nM; TGI (SK-MEL-2 melanoma): 5780 nM; GI50 (SK-MEL-28 melanoma): 362 nM; TGI (SK-MEL-28 melanoma): 3020 nM; GI50 (SK-MEL-5 melanoma): 1670 nM; TGI (SK-MEL-5 melanoma): 3700 nM; GI50 (SK-OV-3 ovarian): 2940 nM; TGI (SK-OV-3 ovarian): 6570 nM; GI50 (SNB-75 CNS): 171 nM; TGI (SNB-75 CNS): 488 nM; GI50 (SR leukemia): 1100 nM; TGI (SR leukemia): > 26600 nM; GI50 (SW-620 colon): 2620 nM; TGI (SW-620 colon): 7590 nM; GI50 (T-47D breast): 2090 nM; TGI (T-47D breast): 5420 nM; GI50 (TK-10 renal): 303 nM; TGI (TK-10 renal): 994 nM; GI50 (U251 CNS): 597 nM; TGI (U251 CNS): 3040 nM; GI50 (UACC-257 melanoma): 452 nM; TGI (UACC-257 melanoma): 3140 nM; GI50 (UACC-62 melanoma): 1370 nM; TGI (UACC-62 melanoma): 3240 nM; GI50 (UO-31 renal): 247 nM; TGI (UO-31 renal): 964 nM

Which results are given for `CC(C)c1cc(C(C)C)c(Cl)c(Cl)c1O` (tested in a mixture with another compound)?
TGI (786-0 renal): > 100000 nM; TGI (A549 NSCLC): > 100000 nM; TGI (ACHN renal): 57600 nM; TGI (BT-549 breast): 40100 nM; TGI (CAKI-1 renal): 47000 nM; TGI (CCRF-CEM leukemia): > 100000 nM; TGI (COLO 205 colon): 39800 nM; TGI (DU-145 prostate): > 100000 nM; TGI (EKVX NSCLC): 53700 nM; TGI (HCC-2998 colon): 64500 nM; TGI (HCT-116 colon): > 100000 nM; TGI (HCT-15 colon): > 100000 nM; TGI (HL-60(TB) leukemia): 36000 nM; TGI (HOP-62 NSCLC): > 100000 nM; TGI (HOP-92 NSCLC): 27900 nM; TGI (HS 578T breast): 38500 nM; TGI (HT29 colon): 58800 nM; TGI (IGROV1 ovarian): 81100 nM; TGI (K-562 leukemia): 37900 nM; TGI (KM12 colon): 58100 nM; TGI (LOX IMVI melanoma): > 100000 nM; TGI (M14 melanoma): > 100000 nM; TGI (MALME-3M melanoma): 52900 nM; TGI (MCF7 breast): 54600 nM; TGI (MDA-MB-231 breast): 46000 nM; TGI (MDA-MB-435): 46100 nM; TGI (NCI-H23 lung): > 100000 nM; TGI (NCI-H460 lung): > 100000 nM; TGI (NCI-H522 lung): 35800 nM; TGI (NCI/ADR-RES ovarian): > 100000 nM; TGI (OVCAR-3 ovarian): 60100 nM; TGI (OVCAR-5 ovarian): > 100000 nM; TGI (OVCAR-8 ovarian): 76100 nM; TGI (PC-3 prostate): 40700 nM; TGI (RPMI-8226 leukemia): > 100000 nM; TGI (RXF 393 renal): 32500 nM; TGI (SF-268 CNS): 42400 nM; TGI (SF-295 CNS): 40900 nM; TGI (SF-539 CNS): 49000 nM; TGI (SK-MEL-2 melanoma): 46500 nM; TGI (SK-MEL-28 melanoma): 42400 nM; TGI (SK-MEL-5 melanoma): 24300 nM; TGI (SN12C renal): 54400 nM; TGI (SNB-19 CNS): 42800 nM; TGI (SR leukemia): 63400 nM; TGI (SW-620 colon): 82100 nM; TGI (TK-10 renal): 54300 nM; TGI (U251 CNS): > 100000 nM; TGI (UACC-257 melanoma): 39300 nM; TGI (UACC-62 melanoma): 44000 nM; TGI (UO-31 renal): 57700 nM
